According to article PMC12549899 (Nature Communications, 2025):

Experiments:
[1] = biological target: T1, human OTOP1 (hOTOP1) (Homo sapiens, UniProt Q7RTM1); assay: Whole-cell patch-clamp, inhibition of currents, hOTOP1 in HEK-293 cells; assay type: cell-based; conditions: HEK293, 300 µM (saturating concentration of C11)
T1 construct: expressed in transfected cells; host or cells: HEK-293 (CRL-1573, ATCC)
T1 sequence (Q7RTM1 1-612): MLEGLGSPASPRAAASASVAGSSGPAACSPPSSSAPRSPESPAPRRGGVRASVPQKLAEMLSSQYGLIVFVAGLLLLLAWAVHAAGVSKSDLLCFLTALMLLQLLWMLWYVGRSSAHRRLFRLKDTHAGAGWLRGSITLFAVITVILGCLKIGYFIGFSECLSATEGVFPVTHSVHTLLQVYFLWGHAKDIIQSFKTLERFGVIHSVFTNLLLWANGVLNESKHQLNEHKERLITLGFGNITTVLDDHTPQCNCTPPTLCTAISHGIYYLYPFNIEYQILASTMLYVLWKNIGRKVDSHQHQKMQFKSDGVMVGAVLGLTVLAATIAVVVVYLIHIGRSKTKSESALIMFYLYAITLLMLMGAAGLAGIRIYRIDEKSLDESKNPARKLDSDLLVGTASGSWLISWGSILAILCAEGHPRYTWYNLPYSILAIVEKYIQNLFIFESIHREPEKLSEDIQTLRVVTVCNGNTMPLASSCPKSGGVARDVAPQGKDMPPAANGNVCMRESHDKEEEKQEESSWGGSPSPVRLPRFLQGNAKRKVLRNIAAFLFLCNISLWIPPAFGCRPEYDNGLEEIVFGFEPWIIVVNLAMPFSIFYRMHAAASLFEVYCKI
Source text: (§1) The second series of compounds was again tested by whole-cell patch-clamp recording of DrOTOP1 expressed in HEK-293 cells. Of the 54 compounds tested, we identified 16 that inhibited DrOTOP1 acid-induced currents by over 25% (Fig. 2D and Supplementary Fig. 3E). […] The Hill coefficient of 1.52 indicated positive cooperativity and multiple binding sites, similar to C11. We next tested each of these compounds against mouse OTOP1 (mOTOP1) and human (Homo sapiens) OTOP1 (hOTOP1), which are among the closest related proteins in the mammalian proteome. […] For both compounds, we also determined whether there was any pH-dependence to their inhibitory effect by measuring dose-response curves over a range from pH 6.0, where sizable currents first appear, to pH 5.0. […]
(§2) Whole-cell patch-clamp recording was performed as previously described[6],[22],[25]. Recordings were made with an Axopatch 200B amplifier, digitized with a Digidata 1322a 16-bit data acquisition system, acquired with pClamp 8.2 and analyzed with Clampfit 10 (Molecular Devices). […]
(§3) All data are presented as mean ± SEM unless otherwise noted, and each data point represents an independent replicant. Inhibition of compounds was quantified as ((I2peak-I1)/(I2peak))*100, where I1 is the current immediately before wash-off and I2peak is the maximum recovered current (Supplementary Fig. 2). […]

[2] = biological target: T2, mouse OTOP1 (mOTOP1) (Mus musculus, UniProt Q80VM9); assay: Whole-cell patch-clamp, inhibition of currents, mOTOP1 in HEK-293 cells; assay type: cell-based; conditions: HEK293, 100 µM (saturating concentration of C2.2)
T2 construct: expressed in transfected cells; host or cells: HEK-293 (CRL-1573, ATCC)
T2 sequence (Q80VM9 1-600): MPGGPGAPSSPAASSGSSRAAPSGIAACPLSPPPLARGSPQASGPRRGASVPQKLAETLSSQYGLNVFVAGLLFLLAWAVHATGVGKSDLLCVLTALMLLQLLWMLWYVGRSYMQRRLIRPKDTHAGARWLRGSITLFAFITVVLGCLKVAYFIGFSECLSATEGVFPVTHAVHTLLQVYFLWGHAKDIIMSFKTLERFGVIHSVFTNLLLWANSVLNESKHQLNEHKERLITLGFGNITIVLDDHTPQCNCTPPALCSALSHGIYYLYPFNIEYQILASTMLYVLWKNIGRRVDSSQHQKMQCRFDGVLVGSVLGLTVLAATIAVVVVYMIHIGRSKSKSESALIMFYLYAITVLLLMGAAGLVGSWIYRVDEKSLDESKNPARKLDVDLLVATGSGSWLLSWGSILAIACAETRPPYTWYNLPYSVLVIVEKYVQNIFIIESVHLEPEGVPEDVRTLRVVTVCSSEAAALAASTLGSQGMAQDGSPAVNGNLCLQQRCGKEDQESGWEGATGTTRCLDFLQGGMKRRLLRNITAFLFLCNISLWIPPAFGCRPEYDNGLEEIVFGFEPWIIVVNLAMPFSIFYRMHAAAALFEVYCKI
Source text: as §1, §2, §3

SMILES	inhibition at 300 µM [1]	inhibition at 100 µM [2]
O=C(/C(=N\O)c1ccccc1)c1ccccc1 [C11, benzil monoxime]	~24%	
C=C(C)COc1ccccc1NC(=O)c1nc[nH]c1C [C2.2]		1.92%
